Patent US20180371021A1, “PEPTIDOMIMETIC MACROCYCLES AND USES THEREOF” (Aileron Therapeutics, Inc., priority 2017, published 2018)
Bridge positions count the residues as written; N and C are the ends. Square brackets hold non-standard residues; d marks the D form. Peptide text beside a SMILES is read from it. Phe(4-COOH) = N[C@@H](Cc1ccc(C(=O)O)cc1)C(=O)O; R8 = C=CCCCCCC[C@@](C)(N)C(=O)O; Cba = N[C@@H](CC1CCC1)C(=O)O; S5 = C=CCCC[C@](C)(N)C(=O)O

Legend:
[1] = system: MCF-7 breast cancer xenograft; assay: MCF-7 breast cancer xenograft study using SP315, SP249 and SP154; format: in vivo, mice
Protocol: Slow release 90 day 0.72 mg 17β-estradiol pellets were implanted subcutaneously (sc) on the nape of the neck one day prior to tumor cell implantation (Day −1). On Day 0, MCF-7 tumor cells were implanted sc in the flank of female nude (Cr1:NU-Foxn1nu) mice. On Day 18, the resultant sc tumors were measured using calipers to determine their length and width, and the mice were weighed. The tumor sizes were calculated using the formula (length×width^2)/2, and expressed as cubic millimeters (mm^3). Mice with tumors smaller than 85.3 mm^3 or larger than 417.4 mm^3 were excluded from the subsequent group formation. Thirteen groups of mice, 10 mice per group, were formed by randomization such that the group mean tumor sizes were essentially equivalent (mean of groups±standard deviation of groups=180.7±17.5 mm^3).
The peptide formulations were prepared once for the duration of the study. The vehicle was used as the vehicle control in the subsequent study.
Each group was assigned to a different treatment regimen. Group 1, as the vehicle negative control group, received the vehicle administered at 8 mL/kg body weight intravenously (I.V.) three times per week from Days 18-39. […] Group 4 received 6.7 mg/kg SP249 as an I.V. injection three times per week. […] Group 9 received 30 mg/kg SP252 as an I.V. injection three times per week.
During the dosing period, the mice were weighed and the tumors were measured 1-2 times per week. Tumor growth inhibition was compared with the vehicle group. Tumor growth inhibition (TGI) was calculated as
where x=day that effect of treatment is being assessed.

[2] = system: SJSA-1 osteosarcoma xenograft; assay: SJSA-1 osteosarcoma xenograft model, AP1 and palbociclib; format: in vivo, mice; conditions: AP1 20 mg/kg qwkx4, palbociclib 75 mg/kg qdx22
Protocol: (§1) The group was not euthanized, and the mice were allowed to recover. […] Animals were monitored individually. […] Responders were followed for a longer period of time. When the endpoint was reached, the animals were euthanized. […] An aqueous phosphate-buffered saline solution or sodium lactate (50 mM, pH 4.0) solution was used as the vehicle.

[3] = system: MCF-7.1 human breast carcinoma xenograft; assay: MCF-7.1 human breast carcinoma xenograft model, AP1 and palbociclib; format: in vivo, mice; conditions: AP1 20 mg/kg qwkx4, palbociclib 75 mg/kg qdx22
Protocol: as §1, with “Female athymic nude mice were provided with drinking water with 10 μg/mL with 17 beta estradiol supplementation 3 days prior to cell implantation and for the duration of the study. […] The mice were between 8-12 weeks of age at the beginning of the study. […] The” for “The”

A549 xenograft = A549 xenograft model, AP1 and palbociclib; format: in vivo, mice; conditions: AP1 20 mg/kg qwkx4, palbociclib 75 mg/kg qdx22
Excerpt: The arrows indicate spontaneous tumor shrinkage in vehicle controls. The arrows with * indicate poor growth of tumors late in the study.

[4] = 39 patients treated with nivolumab; 30 patients treated with pembrolizumab; cited from earlier work
[5] = d22, calculated using vehicle median volumes on d0 and d22
[6] = three consecutive measurements > 150% of d1 volume

Compound: CC[C@H](C)[C@H](NC(=O)[C@H](C)NC(=O)[C@H](C)NC(=O)[C@]1(C)CCCC=CCCCCCC[C@@](C)(NC(=O)[C@H](Cc2ccccc2)NC(=O)[C@@H](NC(=O)[C@H](CC(C)C)NC(C)=O)[C@@H](C)O)C(=O)N[C@@H](CCC(=O)O)C(=O)N[C@@H](Cc2ccc(C(=O)O)cc2)C(=O)N[C@@H](Cc2c[nH]c3ccccc23)C(=O)N[C@@H](C)C(=O)N[C@@H](CCC(N)=O)C(=O)N[C@@H](CC2CCC2)C(=O)N1)C(=O)N[C@H](C)C(N)=O [SP249] (Ac-LTF[R8]E[Phe(4-COOH)]WAQ[Cba][S5]AAI[dA]-NH2; staple 4-11)
- mice died ([1]; […] three times per week): 4

Compound: CC(=O)N[C@@H](CC(C)C)C(=O)N[C@H](C(=O)N[C@@H](C)C(=O)N[C@]1(C)CCCCCCC=CCCC[C@@](C)(C(=O)N[C@@H](CO)C(=O)N[C@@H](C)C(=O)N[C@@H](C)C(N)=O)NC(=O)[C@H](CC2CCC2)NC(=O)[C@H](CCC(N)=O)NC(=O)[C@H](C)NC(=O)[C@H](Cc2c[nH]c3ccccc23)NC(=O)[C@H](Cc2ccc(O)cc2)NC(=O)[C@H](CCC(=O)O)NC1=O)[C@@H](C)O [SP252]
- body weight loss or deaths ([1]; 30 mg/kg three times per week): No body weight loss or deaths
- TGI ([1]; 30 mg/kg three times per week, day 32): 88%

Compound: CC(=O)c1c(C)c2cnc(Nc3ccc(N4CCNCC4)cn3)nc2n(C2CCCC2)c1=O [palbociclib, reference compound]
- Median tumor volume (mm^3) D1 ([2]; D1 (start of dosing), SJSA-1 xenograft, nude mice): 126 mm^3
- Median tumor volume (mm^3) D22 ([2]; D22, SJSA-1 xenograft, nude mice): 1418 mm^3
- Median time to tumor volume > 1000 mm^3 ([2]; SJSA-1 xenograft): 18 days
- Median time to tumor volume > 2000 mm^3 ([2]; SJSA-1 xenograft): 24 days
- % TGI (±SEM) on d22 (end of dosing) [2, 5]: 51 (9) %
- Animals with disease progression [2, 6]: 9/10
- Median tumor volume (mm^3) D1 ([3]; D1 (start of dosing), MCF-7.1 xenograft, nude mice): 108 mm^3
- Median tumor volume (mm^3) D22 ([3]; D22, MCF-7.1 xenograft, nude mice): 196 mm^3
- Median time to tumor volume > 500 mm^3 ([3]; MCF-7.1 xenograft): 37 days
- Median time to tumor volume > 1000 mm^3 ([3]; MCF-7.1 xenograft): 48 days
- % TGI (±SEM) on d22 (end of dosing) [3, 5]: 84 (4) %
- Animals with disease progression [3, 6]: 8/8
- Median tumor volume (mm^3) D1 (A549 xenograft; D1 (start of dosing), A549 xenograft, nude mice): 126 mm^3
- Median tumor volume (mm^3) D22 (A549 xenograft; D22, A549 xenograft, nude mice): 288 mm^3
- % TGI (±SEM) on d22 (end of dosing) (A549 xenograft; [5]): 62 (7) %
- Animals with disease progression (A549 xenograft; [6]): 9/10

Compound: nivolumab: PD-1/PD-L1 antagonist
- PRs [4]: 2
- SDs [4]: 12
- complete responses [4]: 1
- shrinkages among SDs [4]: 2

Compound: pembrolizumab: PD-1/PD-L1 antagonist
- PRs [4]: 3
- SDs [4]: 11
- complete responses [4]: 2
- shrinkages among SDs [4]: 3
